According to patent publication US5821329A, “Cyclic peptide inhibitors of β1 and β2 integrin-mediated adhesion” (Tanabe Seiyaku Co., Ltd., priority 1996, dated 1998):

Assays:
[1] = tested on: Jurkat cell adhesion to IL-1 stimulated endothelial cells (β1 integrins, α4 β1); assay: Jurkat-Endothelial Cell Adhesion Assay; format: cell-based, human; conditions: Jurkat T cells on IL-1 stimulated HUVEC; no unit printed in the table (text gives IC50 and test concentrations in μM); read-out: IC50 for adhesion inhibition Jurk-EC
Description: Jurkat-Endothelial Cell Adhesion Assay […] This assay measured the adhesive interactions of a T-cell line, Jurkat, known to express high levels of α4 β1, to endothelial cell monolayers in the presence of representative test compounds of the present invention. The test compounds were added in increasing concentrations to T-cells and then the T-cell/compound mixture was added to IL-1 stimulated endothelial cell monolayers. The plates were incubated, washed and the percentage of attached cells was quantitated. […] Human umbilical vein endothelial cells (HUVEC) were purchased from Clonetics (San Diego, Calif.) at passage number 2. The cells were grown on 0.5% porcine skin gelatin pre-coated flasks (Sigma, St. Louis, Mo.) in EGM-UV media (Clonetics, San Diego, Calif.) supplemented with 10% fetal bovine serum. Cells were re-fed every 2-3 days, reaching confluence by day 4 to 6. […] The endothelial cells were not used following passage 7. The T-cell line Jurkat was obtained from American Type Culture Collection and cultured in RPMI media containing 10% fetal calf serum. […] Following this incubation, the monolayers were washed twice with PBS containing 1 mM calcium chloride and 1 mM magnesium chloride and the plates were read using a Millipore Cytofluor 2300 (Marlboro, Mass.). […] Monolayers were also fixed in 3% paraformaldehyde and evaluated microscopically to verify the adhesion. […]

[2] = tested on: JY cell adhesion to TNF stimulated endothelial cells (β2 integrins); assay: JY-Endothelial Cell adhesion assay; format: cell-based, human; conditions: JY B cells + PMA on rTNF-stimulated HUVEC; no unit printed in the table (text gives IC50 and test concentrations in μM); read-out: IC50 for adhesion inhibition JY-EC
Description: The JY-Endothelial Cell Assay
The following assay established the activity of the present compounds in inhibiting cell adhesion through β2 integrins in a representative in vitro system.
The human B cell line, JY, was cultured in RPMI media containing 10% fetal calf serum at 37° C., in a humidified CO2 atmosphere. Endothelial cells were grown to confluency in 96-well micro-titer assay plates, as in the Jurkat-EC assay. Before the assay, the endothelial cells were stimulated with 50 U/ml rTNF for 18-24 hours at 37° C. JY cells were loaded with the fluorescent dye indicator BCECF-AM as follows: JY cells were washed twice with HBSS and cells were resuspended in HBSS at 5×10^6 cells/ml; BCECF-AM (Molecular Probes), stock concentration=1 mg/ml in DMSO, was added to the JY cells to a final concentration of 2 μg/ml; cells were incubated in the dark at 37° C. for 30-45 minutes; washed twice with HBSS and used in the assay. […]
The assay plates were then typically incubated for 30 min at 37° C. and washed four times with PBS containing Mg^2+ and Ca^2+ (room temp). 100 μl of PBS containing Mg^2+ and Ca^2+ were added to each well and the fluorescence from the adherent BCECF-labelled cells was analyzed using a fluorescence plate reader. […]

Row | Substance | IC50 [1] | IC50 [2]
1 | (1-FCA)-Arg-Cys*-(β-Asp)-(ThioP)-Cys*-Ala-Ala-Asp-(OFm) [Compound 35] | 267 µM | 
2 | (9-FAc)-Arg-Cys*-(β-Asp)-(ThioP)-Cys*-(Abu)-Lys [Compound 65] |  | 353 µM
3 | (Ac)-Arg-Cys*-(β-Asp)-(ThioP)-Cys*-Ala-Asp-(OFm) [Compound 37] | 106 µM | 
4 | (Fmoc)-Arg-Cys*-(β-Asp)-(ThioP)-Cys* [Compound 22] |  | 52 µM
